According to publication PMC6407913, “DREADD Agonist 21 Is an Effective Agonist for Muscarinic-Based DREADDs in Vitro and in Vivo” (ACS Pharmacology & Translational Science, 2018):
“And” between values parts separate entries of the source, which are not always exact repeats. Equal values may be shown once.

Legend:
[1] = biological target: T1, 318 nonolfactory human GPCRs (Homo sapiens, UniProt P50391); assay type: cell-based; details: NPY4R; C21 5 µM
T1 construct: expressed in transfected cells; host or cells: HTLA cells, transient

[2] = biological target: 318 nonolfactory human GPCRs (Homo sapiens, UniProt Q13258); assay type: cell-based; details: PTGDR; C21 5 µM
Chain of 318 nonolfactory human GPCRs (Homo sapiens, UniProt Q13258) (Q13258 whole entry): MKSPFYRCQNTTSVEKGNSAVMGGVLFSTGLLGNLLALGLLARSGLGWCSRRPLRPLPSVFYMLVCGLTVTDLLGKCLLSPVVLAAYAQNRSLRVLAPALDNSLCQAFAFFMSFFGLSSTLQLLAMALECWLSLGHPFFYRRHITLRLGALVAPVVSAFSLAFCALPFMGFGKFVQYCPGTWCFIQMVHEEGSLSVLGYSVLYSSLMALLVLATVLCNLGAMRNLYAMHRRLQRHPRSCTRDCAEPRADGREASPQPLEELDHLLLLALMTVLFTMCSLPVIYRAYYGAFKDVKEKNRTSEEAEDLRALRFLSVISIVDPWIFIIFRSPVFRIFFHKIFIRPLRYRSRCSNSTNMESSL

[3] = biological target: T2, 318 nonolfactory human GPCRs (Homo sapiens, UniProt P32241); assay type: cell-based; details: VIPR1; C21 5 µM
T2 construct: expressed in transfected cells; host or cells: HTLA cells, transient
T2 sequence (P32241 31-457): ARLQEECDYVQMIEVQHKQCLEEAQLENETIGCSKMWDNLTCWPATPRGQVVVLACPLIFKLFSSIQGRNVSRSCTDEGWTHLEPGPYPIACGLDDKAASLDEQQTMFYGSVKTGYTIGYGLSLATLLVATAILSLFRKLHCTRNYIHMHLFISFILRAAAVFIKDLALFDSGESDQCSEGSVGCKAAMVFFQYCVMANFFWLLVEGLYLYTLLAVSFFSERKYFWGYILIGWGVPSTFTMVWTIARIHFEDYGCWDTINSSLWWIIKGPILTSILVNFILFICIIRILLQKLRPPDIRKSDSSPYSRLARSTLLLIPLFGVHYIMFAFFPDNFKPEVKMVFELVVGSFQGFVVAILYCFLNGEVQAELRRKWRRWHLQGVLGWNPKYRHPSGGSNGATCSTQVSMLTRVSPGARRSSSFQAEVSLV

[4] = biological target: T3, 318 nonolfactory human GPCRs (Homo sapiens, UniProt Q16538); assay type: cell-based; details: GPR162; C21 5 µM
T3 construct: expressed in transfected cells; host or cells: HTLA cells, transient
T3 sequence (Q16538 whole entry): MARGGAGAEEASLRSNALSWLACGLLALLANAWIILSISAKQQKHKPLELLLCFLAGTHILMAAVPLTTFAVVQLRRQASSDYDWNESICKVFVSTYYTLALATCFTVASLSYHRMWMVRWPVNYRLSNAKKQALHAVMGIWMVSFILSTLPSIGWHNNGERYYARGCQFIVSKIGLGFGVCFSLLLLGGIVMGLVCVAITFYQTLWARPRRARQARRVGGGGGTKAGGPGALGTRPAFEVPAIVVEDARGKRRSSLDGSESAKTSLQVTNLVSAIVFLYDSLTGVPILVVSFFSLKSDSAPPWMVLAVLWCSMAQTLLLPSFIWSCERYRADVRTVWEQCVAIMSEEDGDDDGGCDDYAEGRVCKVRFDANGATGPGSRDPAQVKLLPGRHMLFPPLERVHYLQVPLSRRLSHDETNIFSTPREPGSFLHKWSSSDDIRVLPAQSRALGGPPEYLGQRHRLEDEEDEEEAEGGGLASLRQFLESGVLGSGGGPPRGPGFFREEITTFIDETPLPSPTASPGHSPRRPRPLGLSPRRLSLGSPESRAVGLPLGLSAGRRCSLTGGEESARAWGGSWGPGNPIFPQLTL

[5] = biological target: T4, 318 nonolfactory human GPCRs (Homo sapiens, UniProt P34969); assay type: cell-based; details: HTR7; C21 5 µM
T4 construct: expressed in transfected cells; host or cells: HTLA cells, transient

[6] = biological target: T5, 318 nonolfactory human GPCRs (Homo sapiens, UniProt P50052); assay type: cell-based; details: AGTR2; C21 5 µM
T5 construct: expressed in transfected cells; host or cells: HTLA cells, transient

[7] = biological target: T6, 318 nonolfactory human GPCRs (Homo sapiens, UniProt Q9UJ42); assay type: cell-based; details: GPR160; C21 5 µM
T6 construct: expressed in transfected cells; host or cells: HTLA cells, transient

[8] = biological target: T7, 318 nonolfactory human GPCRs (Homo sapiens, UniProt P30939); assay type: cell-based; details: HTR1F; C21 5 µM
T7 construct: expressed in transfected cells; host or cells: HTLA cells, transient

[9] = biological target: T8, 318 nonolfactory human GPCRs (Homo sapiens, UniProt P35410); assay type: cell-based; details: MAS1L; C21 5 µM
T8 construct: expressed in transfected cells; host or cells: HTLA cells, transient

[10] = biological target: T9, 318 nonolfactory human GPCRs (Homo sapiens, UniProt Q92847); assay type: cell-based; details: GHSR; C21 5 µM
T9 construct: expressed in transfected cells; host or cells: HTLA cells, transient

[11] = biological target: T10, 318 nonolfactory human GPCRs (Homo sapiens, UniProt Q96G91); assay type: cell-based; details: P2RY11; C21 5 µM
T10 construct: expressed in transfected cells; host or cells: HTLA cells, transient

[12] = biological target: T11, 318 nonolfactory human GPCRs (Homo sapiens, UniProt P29274); assay type: cell-based; details: ADORA2A; C21 5 µM
T11 construct: expressed in transfected cells; host or cells: HTLA cells, transient
T11 sequence (P29274 whole entry): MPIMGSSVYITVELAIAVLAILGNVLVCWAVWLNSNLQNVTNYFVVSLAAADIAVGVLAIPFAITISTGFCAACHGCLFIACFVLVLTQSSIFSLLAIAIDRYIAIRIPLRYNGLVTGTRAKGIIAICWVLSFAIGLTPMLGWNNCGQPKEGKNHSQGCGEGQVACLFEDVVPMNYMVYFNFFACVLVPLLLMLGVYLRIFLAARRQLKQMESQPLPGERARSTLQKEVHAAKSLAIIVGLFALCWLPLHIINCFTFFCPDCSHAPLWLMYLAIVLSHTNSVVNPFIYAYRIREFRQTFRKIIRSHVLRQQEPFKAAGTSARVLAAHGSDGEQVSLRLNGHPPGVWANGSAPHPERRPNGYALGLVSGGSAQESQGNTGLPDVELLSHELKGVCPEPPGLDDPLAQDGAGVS

[13] = biological target: T12, 318 nonolfactory human GPCRs (Homo sapiens, UniProt Q9HBW9); assay type: cell-based; details: ELTD1; C21 5 µM
T12 construct: expressed in transfected cells; host or cells: HTLA cells, transient

[14] = biological target: T13, 318 nonolfactory human GPCRs (Homo sapiens, UniProt Q13585); assay type: cell-based; details: GPR50; C21 5 µM
T13 construct: expressed in transfected cells; host or cells: HTLA cells, transient

[15] = biological target: T14, 318 nonolfactory human GPCRs (Homo sapiens, UniProt Q86SM8); assay type: cell-based; details: MRGPRE; C21 5 µM
T14 construct: expressed in transfected cells; host or cells: HTLA cells, transient

[16] = biological target: T15, 318 nonolfactory human GPCRs (Homo sapiens, UniProt Q96P66); assay type: cell-based; details: GPR101; C21 5 µM
T15 construct: expressed in transfected cells; host or cells: HTLA cells, transient

[17] = biological target: T16, 318 nonolfactory human GPCRs (Homo sapiens, UniProt P21452); assay type: cell-based; details: TACR2; C21 5 µM
T16 construct: expressed in transfected cells; host or cells: HTLA cells, transient

[18] = biological target: T17, 318 nonolfactory human GPCRs (Homo sapiens, UniProt P48039); assay type: cell-based; details: MTNR1A; C21 5 µM
T17 construct: expressed in transfected cells; host or cells: HTLA cells, transient

[19] = biological target: T18, 318 nonolfactory human GPCRs (Homo sapiens, UniProt Q9BPV8); assay type: cell-based; details: P2RY13; C21 5 µM
T18 construct: expressed in transfected cells; host or cells: HTLA cells, transient

[20] = biological target: T19, 318 nonolfactory human GPCRs (Homo sapiens, UniProt P47901); assay type: cell-based; details: AVPR1B; C21 5 µM
T19 construct: expressed in transfected cells; host or cells: HTLA cells, transient
T19 sequence (P47901 whole entry): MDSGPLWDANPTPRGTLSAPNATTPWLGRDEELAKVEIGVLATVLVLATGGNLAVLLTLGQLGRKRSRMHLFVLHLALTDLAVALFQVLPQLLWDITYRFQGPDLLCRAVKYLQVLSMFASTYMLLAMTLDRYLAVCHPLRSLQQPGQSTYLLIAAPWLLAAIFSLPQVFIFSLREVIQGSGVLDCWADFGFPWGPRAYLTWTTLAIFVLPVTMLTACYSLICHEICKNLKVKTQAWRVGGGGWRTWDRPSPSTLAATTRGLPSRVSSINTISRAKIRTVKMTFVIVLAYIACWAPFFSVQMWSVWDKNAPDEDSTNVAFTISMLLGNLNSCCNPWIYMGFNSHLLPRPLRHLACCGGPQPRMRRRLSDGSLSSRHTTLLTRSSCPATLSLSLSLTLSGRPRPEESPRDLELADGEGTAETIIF

[21] = biological target: 318 nonolfactory human GPCRs (Homo sapiens, UniProt P28223); assay type: cell-based; details: HTR2A; C21 5 µM
[22] = biological target: 318 nonolfactory human GPCRs (Homo sapiens, UniProt Q9UPC5); assay type: cell-based; details: GPR34; C21 5 µM
Chain of 318 nonolfactory human GPCRs (Homo sapiens, UniProt Q9UPC5) (Q9UPC5 whole entry): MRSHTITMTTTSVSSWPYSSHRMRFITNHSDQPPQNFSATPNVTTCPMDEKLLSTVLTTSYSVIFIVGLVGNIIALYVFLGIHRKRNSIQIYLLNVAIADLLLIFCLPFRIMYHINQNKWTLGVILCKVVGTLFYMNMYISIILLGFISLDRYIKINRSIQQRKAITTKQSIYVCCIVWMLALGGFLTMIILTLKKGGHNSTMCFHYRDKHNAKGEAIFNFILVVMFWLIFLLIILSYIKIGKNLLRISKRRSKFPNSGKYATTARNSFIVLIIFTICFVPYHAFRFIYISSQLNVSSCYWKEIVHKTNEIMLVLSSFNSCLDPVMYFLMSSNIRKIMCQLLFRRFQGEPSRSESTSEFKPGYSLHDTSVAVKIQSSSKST

[23] = biological target: 318 nonolfactory human GPCRs (Homo sapiens, UniProt P25025); assay type: cell-based; details: CXCR2; C21 5 µM
[24] = biological target: T20, 318 nonolfactory human GPCRs (Homo sapiens, UniProt P43115); assay type: cell-based; details: PTGER3; C21 5 µM
T20 construct: expressed in transfected cells; host or cells: HTLA cells, transient
T20 sequence (P43115 whole entry): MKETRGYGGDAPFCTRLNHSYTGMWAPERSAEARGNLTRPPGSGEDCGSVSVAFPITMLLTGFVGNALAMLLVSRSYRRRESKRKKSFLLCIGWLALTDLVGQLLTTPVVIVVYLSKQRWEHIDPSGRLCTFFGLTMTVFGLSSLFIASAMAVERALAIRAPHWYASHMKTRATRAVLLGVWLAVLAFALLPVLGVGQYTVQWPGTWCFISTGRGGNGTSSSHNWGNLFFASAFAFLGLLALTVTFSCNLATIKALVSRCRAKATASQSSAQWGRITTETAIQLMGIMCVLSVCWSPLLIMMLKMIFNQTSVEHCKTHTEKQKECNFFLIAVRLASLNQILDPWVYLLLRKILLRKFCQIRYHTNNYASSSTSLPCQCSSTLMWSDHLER

[25] = biological target: T21, 318 nonolfactory human GPCRs (Homo sapiens, UniProt Q9HBX9); assay type: cell-based; details: RXFP1; C21 5 µM
T21 construct: expressed in transfected cells; host or cells: HTLA cells, transient

[26] = biological target: T22, 318 nonolfactory human GPCRs (Homo sapiens, UniProt O14842); assay type: cell-based; details: FFA1; C21 5 µM
T22 construct: expressed in transfected cells; host or cells: HTLA cells, transient

[27] = biological target: T23, 318 nonolfactory human GPCRs (Homo sapiens, UniProt P20309); assay type: cell-based; details: CHRM3; C21 5 µM
T23 construct: expressed in transfected cells; host or cells: HTLA cells, transient
T23 sequence (P20309 whole entry): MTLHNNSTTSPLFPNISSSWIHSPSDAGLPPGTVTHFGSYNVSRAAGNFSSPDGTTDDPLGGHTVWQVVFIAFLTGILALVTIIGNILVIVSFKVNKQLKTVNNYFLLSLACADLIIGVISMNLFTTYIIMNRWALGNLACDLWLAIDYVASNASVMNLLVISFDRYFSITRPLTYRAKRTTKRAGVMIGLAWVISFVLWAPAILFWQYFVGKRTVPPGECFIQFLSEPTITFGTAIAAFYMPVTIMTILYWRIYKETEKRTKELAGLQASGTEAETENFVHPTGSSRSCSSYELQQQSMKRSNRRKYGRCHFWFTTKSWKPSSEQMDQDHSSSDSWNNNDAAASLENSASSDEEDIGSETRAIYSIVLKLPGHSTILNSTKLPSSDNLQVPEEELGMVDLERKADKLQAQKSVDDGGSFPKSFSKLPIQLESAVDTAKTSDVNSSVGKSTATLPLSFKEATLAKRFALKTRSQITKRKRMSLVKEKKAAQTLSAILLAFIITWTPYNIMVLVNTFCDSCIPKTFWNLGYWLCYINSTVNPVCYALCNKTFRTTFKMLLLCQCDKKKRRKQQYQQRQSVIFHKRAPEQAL

[28] = biological target: T24, 318 nonolfactory human GPCRs (Homo sapiens, UniProt Q14416); assay type: cell-based; details: GMR2; C21 5 µM
T24 construct: expressed in transfected cells; host or cells: HTLA cells, transient
T24 sequence (Q14416 19-872): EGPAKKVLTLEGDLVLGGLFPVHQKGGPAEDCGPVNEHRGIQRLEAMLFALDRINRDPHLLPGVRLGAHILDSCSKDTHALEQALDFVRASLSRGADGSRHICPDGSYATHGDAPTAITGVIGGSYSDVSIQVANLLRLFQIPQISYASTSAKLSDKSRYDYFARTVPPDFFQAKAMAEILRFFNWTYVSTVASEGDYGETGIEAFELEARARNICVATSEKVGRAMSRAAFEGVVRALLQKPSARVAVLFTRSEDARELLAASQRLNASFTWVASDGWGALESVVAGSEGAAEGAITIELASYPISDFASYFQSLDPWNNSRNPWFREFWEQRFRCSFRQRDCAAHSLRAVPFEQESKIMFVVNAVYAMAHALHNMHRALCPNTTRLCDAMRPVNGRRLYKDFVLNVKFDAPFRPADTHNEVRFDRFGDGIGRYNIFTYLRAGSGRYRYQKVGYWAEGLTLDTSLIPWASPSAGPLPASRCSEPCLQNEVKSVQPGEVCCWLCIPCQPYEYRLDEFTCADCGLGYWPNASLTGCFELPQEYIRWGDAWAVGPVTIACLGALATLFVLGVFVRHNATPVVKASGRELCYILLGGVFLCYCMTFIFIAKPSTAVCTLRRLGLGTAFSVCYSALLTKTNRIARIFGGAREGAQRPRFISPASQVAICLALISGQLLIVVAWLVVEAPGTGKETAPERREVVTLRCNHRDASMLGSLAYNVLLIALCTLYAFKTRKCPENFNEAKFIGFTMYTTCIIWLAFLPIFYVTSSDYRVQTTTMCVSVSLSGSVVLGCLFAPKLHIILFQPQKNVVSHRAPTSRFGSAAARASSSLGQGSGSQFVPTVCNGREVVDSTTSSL

[29] = biological target: T25, 318 nonolfactory human GPCRs (Homo sapiens, UniProt Q86SQ6); assay type: cell-based; details: GPR123; C21 5 µM
T25 construct: expressed in transfected cells; host or cells: HTLA cells, transient

[30] = biological target: T26, 318 nonolfactory human GPCRs (Homo sapiens, UniProt P08908); assay type: cell-based; details: HTR1A; C21 5 µM
T26 construct: expressed in transfected cells; host or cells: HTLA cells, transient
T26 sequence (P08908 whole entry): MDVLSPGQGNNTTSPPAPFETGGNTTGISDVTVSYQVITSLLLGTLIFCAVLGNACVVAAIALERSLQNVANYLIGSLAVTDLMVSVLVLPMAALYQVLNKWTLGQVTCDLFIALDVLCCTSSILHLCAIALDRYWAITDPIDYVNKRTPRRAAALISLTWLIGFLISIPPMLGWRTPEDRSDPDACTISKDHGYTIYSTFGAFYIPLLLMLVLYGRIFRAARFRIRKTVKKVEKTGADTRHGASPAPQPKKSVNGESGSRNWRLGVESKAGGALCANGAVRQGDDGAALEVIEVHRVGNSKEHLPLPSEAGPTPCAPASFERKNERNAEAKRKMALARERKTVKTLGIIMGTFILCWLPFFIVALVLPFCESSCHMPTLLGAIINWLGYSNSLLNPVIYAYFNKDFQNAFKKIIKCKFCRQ

[31] = biological target: T27, 318 nonolfactory human GPCRs (Homo sapiens, UniProt Q96P67); assay type: cell-based; details: GPR82; C21 5 µM
T27 construct: expressed in transfected cells; host or cells: HTLA cells, transient

[32] = plasma protein binding; assay type: in vitro ADME
[33] = brain and plasma exposure after i.p. administration; assay type: in vivo, mice
[34] = i.p. 0.1, 1 and 10 mg/kg, 30 min after administration

Compound: c1ccc2c(c1)N=C(N1CCNCC1)c1ccccc1N2 [C21, 11-(1-piperazinyl)-5H-dibenzo[b,e][1,4]diazepine]
- FOLD OVER BASAL [1]: 0.5 fold and 0.6 fold and 0.7 fold
- FOLD OVER BASAL [2]: 1.3 fold and 1.5 fold and 1 fold and 1.4 fold
- FOLD OVER BASAL [3]: 0.6 fold and 0.9 fold and 0.8 fold
- FOLD OVER BASAL [4]: 0.6 fold and 0.7 fold and 0.9 fold
- FOLD OVER BASAL [5]: 0.9 fold and 0.8 fold and 1 fold
- FOLD OVER BASAL [6]: 1.1 fold and 0.9 fold and 1 fold
- FOLD OVER BASAL [7]: 1.3 fold and 1 fold and 0.8 fold
- FOLD OVER BASAL [8]: 1.1 fold and 1 fold and 0.8 fold
- FOLD OVER BASAL [9]: 0.6 fold and 1 fold
- FOLD OVER BASAL [10]: 0.9 fold and 1 fold
- FOLD OVER BASAL [11]: 1.1 fold and 0.8 fold and 0.6 fold and 0.9 fold
- FOLD OVER BASAL [12]: 0.6 fold and 0.7 fold and 0.5 fold and 0.4 fold
- FOLD OVER BASAL [13]: 0.6 fold and 0.8 fold and 1 fold and 0.7 fold
- FOLD OVER BASAL [14]: 0.6 fold and 0.7 fold and 0.5 fold and 0.9 fold
- FOLD OVER BASAL [15]: 0.7 fold and 0.8 fold
- FOLD OVER BASAL [16]: 1.2 fold and 1 fold and 0.9 fold
- FOLD OVER BASAL [17]: 0.7 fold and 0.9 fold and 0.6 fold and 1.1 fold
- FOLD OVER BASAL [18]: 1.1 fold and 0.9 fold and 1 fold
- FOLD OVER BASAL [19]: 0.8 fold and 1 fold and 1.2 fold
- FOLD OVER BASAL [20]: 0.4 fold and 0.6 fold and 0.7 fold
- FOLD OVER BASAL [21]: 0.1 fold and 0.2 fold
- FOLD OVER BASAL [22]: 1.2 fold and 1.1 fold and 1.4 fold
- FOLD OVER BASAL [23]: 0.9 fold and 1 fold
- FOLD OVER BASAL [24]: 0.7 fold and 1 fold and 0.5 fold and 0.9 fold
- FOLD OVER BASAL [25]: 0.4 fold and 0.6 fold
- FOLD OVER BASAL [26]: 0.4 fold and 0.7 fold and 0.8 fold
- FOLD OVER BASAL [27]: 3.1 fold and 3.7 fold and 2.6 fold and 3.4 fold
- FOLD OVER BASAL [28]: 1.3 fold and 1.2 fold and 0.7 fold and 1.1 fold
- FOLD OVER BASAL [29]: 1.2 fold and 0.7 fold and 1.1 fold and 0.9 fold
- FOLD OVER BASAL [30]: 0.5 fold and 0.4 fold and 0.3 fold
- FOLD OVER BASAL [31]: 1 fold and 0.9 fold and 1.1 fold
- fraction unbound [32]: 0.049
- effective free concentration at the peak, brain ([33]; 5 mg/kg i.p.): 28 nM
- effective free concentration at the peak, plasma ([33]; 5 mg/kg i.p.): ~54 nM
- brain level reached ([33]; 5 mg/kg i.p., time course): 579 ng/mL and 2 μM
- peak plasma level ([33]; 5 mg/kg i.p., time course): 1150 ng/mL and 4.12 μM
- calculated free brain concentration ([33]; dose 0.3 mg/kg, mice): ~1.7 nM
- calculated free concentration ([33]; dose 3 mg/kg, mice): ~17 nM
- brain and plasma levels [33, 34]: measurable brain and plasma levels
- metabolism to clozapine [33, 34]: no evidence of metabolism to clozapine
